# How the values were obtained:
# [1] = system: human low-density lipoproteins; assay: In vitro oxidation of LDL by copper (joint dienes at 234 nm; TBARS); type: biochemical
# Excerpt: (§1) Oxidation of the polyunsaturated fatty acids of LDL is accompanied by the formation of joint dienes, which have a maximum absorbance at 234 nm. These joint dienes result from rearrangement of the double bonds of polyunsaturated fatty acids following removal of a […] hydrogen. The increase in the absorption of joint dienes can be measured directly in solution without resorting to extraction of the lipids. A latency phase during which few dienes are produced, a propagation phase during which the absorbance at 234 nm increases rapidly to reach a plateau and a decomposition phase where the aldehydes formed also absorb in the region of 210-240 nm, thus producing a new increase in the absorbance at 234 nm, are observed in succession. Measurement of the conjugated dienes currently seems to be the best indicator of the oxidizability of LDL if pure LDL preparations are available (Esterbauer et al. (1989)). […]
# (§2) To measure the joint dienes, a solution of LDL (final concentration of 50 μg protein/ml PBS buffer, pH 7.4) is incubated in the presence of 5 μM copper or […] and in the absence or in the presence of varying concentrations of CLM in a quartz cell with an optical path of 1 cm. The absorbances at 234 nm of various samples are measured as a function of time on a UV-visible spectrophotometer (DU-8, Beckman). […]
# [2] = system: fibroblasts; assay: Resistance of fibroblasts subjected to t-BHP (MTT cytotoxicity curve); type: cell-based; settings: 10^−5 M CLM, MTT test
# Excerpt: FIG. 5 illustrates the increase in the resistance of fibroblasts subjected to the action of t-BHP by means of 10^−5 M CLM.
# [3] = system: human fibroblasts (MRC-5); assay: Toxicity on human fibroblasts (MRC-5); type: cell-based
# Procedure: (§3) Coetenteramine was applied to primary cultures of rat hepatocytes cultured in microplates (20,000 cells per well, 200 μl ). The doses of CLM ranged from 1.3×10^−5 to 5×10^−4 M. After a period of 24 hours, their survival was evaluated by measuring the contents of total proteins in each well (Bradford method). […] Similar results were obtained on human fibroblasts (MRC-5) and human intestinal cells (CACO2).
# [4] = Stability towards oxygen (powder and in aqueous and organic solvents; HPLC and TLC analysis); type: physicochemical
# Excerpt: In fact, this molecule is not changed by remaining in an aqueous solvent exposed to air for several days.
# [5] = system: low-density lipoproteins (LDL); assay: In vitro oxidation of LDL induced by AAPH (joint dienes, absorbance at 234 nm); type: biochemical; settings: increasing concentrations of CLM, 37° C.
# Excerpt: as §1, §2
# [6] = system: hepatocytes; assay: Protection of hepatocytes subjected to nitrofurantoin (MTT survival); type: cell-based, rat; settings: 3×10^−4 M NF for 6 hours, 5×10^−5 M CLM, MTT method, % of the controls
# Procedure: (§4) Primary cultures of hepatocytes were subjected to the action of tert-butyl hydroperoxide (t-BHP) and nitrofurantoin (NF). The action of t-BHF is associated with its direct oxidizing power, while the action of NF results from the production of superoxide anions during its metabolization by the cytochrome P450 of cells.
# FIG. 4 illustrates the survival of hepatocytes subjected to the action of 3×10^−4 M NF for 6 hours. At the end of this treatment, the survival (estimated by the MTT method) was 18% in the control groups. If CLM is added to the culture medium, the survival of the hepatocytes increases regularly, to reach 70% of the controls at 5×10^−5 M CLM.
# [7] = system: rat hepatocytes; assay: Toxicity on primary cultures of rat hepatocytes (24 h, total proteins, Bradford method); type: cell-based; settings: 1.3×10^−5 to 5×10^−4 M CLM
# Procedure: as §3
# [8] = system: rat hepatocytes; assay: Protection of hepatocytes treated with t-BHP (LDH release, mortality); type: cell-based
# Procedure: as §4
# The mortality, which is 75% in the controls, reaches only a few % in the presence of 50 μM CLM.
# [9] = system: human intestinal cells (CACO2); assay: Toxicity on human intestinal cells (CACO2); type: cell-based
# Procedure: as §3
compound,measurement,setting,value
Nc1ncc(-c2ccc(O)cc2)nc1Cc1ccccc1 [Coelenteramine],protective action on LDL with respect to oxidation by copper,"[1]; 5 μM copper, 30° C.",significant protective action
same,appearance of TBARS (MDA) in the oxidation of LDL,"[1]; human LDL oxidized by Cu2+, as a function of time",delay in the appearance of TBARS
same,cytotoxicity curve of t-BHP,[2],significant displacement of the cytotoxicity curve
same,toxicity,[3],absence of toxicity
same,degradation product identified by HPLC and TLC,[4]; aqueous solvent exposed to air for several days,no degradation product
same,stability towards oxygen,[4]; powder and after solubilization in aqueous and organic solvents,excellent stability towards oxygen
same,appearance of joint dienes in the oxidation of LDL by AAPH,[5],significant slowing down in the appearance of joint dienes
same,survival of hepatocytes,[6],70%
same,toxicity (percentage survival of controls),[7],not at all toxic
same,mortality,[8]; 50 μM CLM,only a few %
same,release of lactate dehydrogenase (LDH),[8]; CLM 10 and 50 μM,reduction in the release of lactate dehydrogenase
same,toxicity,[9],absence of toxicity
